Test results as given in PMC6661771, “Indole hybridized diazenyl derivatives: synthesis, antimicrobial activity, cytotoxicity evaluation and docking studies” (BMC Chemistry, 2019).
Values after ≈ are worked out from the molar mass of the structure shown. Read-outs that look alike come from different tables or passages of the source.

Experiments:
[1] = test system: B. subtilis; experiment: MIC by tube dilution method; format: cell-based; settings: 24 h at 37 °C
[2] = test system: S. aureus; experiment: Minimum bactericidal concentration (MBC); format: cell-based; settings: for MBC: Staphylococcus aureus
[3] = test system: E. coli; experiment: Minimum bactericidal concentration (MBC); format: cell-based; settings: for MBC: Escherichia coli
[4] = test system: S. aureus; experiment: MIC by tube dilution method; format: cell-based; settings: 24 h at 37 °C
[5] = test system: S. enterica; experiment: MIC by tube dilution method; format: cell-based; settings: 24 h at 37 °C
[6] = test system: E. coli; experiment: MIC by tube dilution method; format: cell-based; settings: 24 h at 37 °C
[7] = test system: K. pneumonia; experiment: Minimum bactericidal concentration (MBC); format: cell-based; settings: for MBC: Klebsiella pneumoniae
[8] = test system: S. enterica; experiment: Minimum bactericidal concentration (MBC); format: cell-based; settings: Salmonella enterica, read-out: MBC/MFC
Method: After MIC assessment, the indole derivatives (DS1–DS21), were additionally evaluated for MBC and MFC values. […] The 10–15 ml of nutrient agar and Sabouraud dextrose agar was added to the petri plates for bacterial and fungal samples respectively with gentle shaking of plates in order to mix the culture throughout the media. Allowed the media to solidify. The petri plates were then incubated for the predefined time and temperature as referenced already for bacterial and fungal cultures respectively. The plates were then investigated visually for the development of microbial growth. The MBC and MFC were stated as the minimum concentration of the compounds in aliquots showing no visual growth after incubation.

[9] = test system: K. pneumonia; experiment: MIC by tube dilution method; format: cell-based; settings: Klebsiella pneumoniae, 24 h, 24 h at 37 °C, read-out: MIC
[10] = test system: B. subtilis; experiment: Minimum bactericidal concentration (MBC); format: cell-based; settings: for MBC: Bacillus subtilis
[11] = test system: A. niger; experiment: Minimum fungicidal concentration (MFC); format: cell-based; settings: for MFC: Aspergillus niger, read-out: MBC/MFC
[12] = test system: A. fumigatus; experiment: Minimum fungicidal concentration (MFC); format: cell-based; settings: for MFC: Aspergillus fumigatus, read-out: MBC/MFC
[13] = test system: A. fumigatus; experiment: MIC by tube dilution method; format: cell-based; settings: 7 days at 25 °C
[14] = test system: A. niger; experiment: MIC by tube dilution method; format: cell-based; settings: 7 days at 25 °C
[15] = Bacillus subtilis, read-out: MIC
[16] = Staphylococcus aureus, read-out: MIC
[17] = Salmonella enterica, 24 h, read-out: MIC
[18] = Escherichia coli, 24 h, read-out: MIC
[19] = Aspergillus fumigatus, 168 h, read-out: MIC
[20] = Aspergillus niger, 168 h, read-out: MIC

SMILES	MIC [1, 15] [mg/L]	MBC [2] [mg/L]	MBC [3] [mg/L]	MIC [4, 16] [mg/L]	MIC [5, 17] [mg/L]	MIC [6, 18] [mg/L]	MBC [7] [mg/L]	MBC ([8]; S. enterica, MBC) [mg/L]	MIC [9] [mg/L]	MBC [10] [mg/L]	MFC [11] [mg/L]	melting point [°C]	MFC [12] [mg/L]	MBC [8] [mg/L]	MIC [13, 19] [mg/L]	MIC [14, 20] [mg/L]	further results
O=C(O)c1cn(C2CC2)c2cc(N3CCNCC3)c(F)cc2c1=O [CPR, ciprofloxacin, reference compound]	7.81 (≈ 23.6 µM)	62.5 (≈ 189 µM)	31.2 (≈ 94.3 µM)	1.95 (≈ 5.89 µM)	15.6 (≈ 47.1 µM)	3.9 (≈ 11.8 µM)	7.81 (≈ 23.6 µM)	31.2 (≈ 94.3 µM)	7.81 (≈ 23.6 µM)	31.2 (≈ 94.3 µM)							
C/C(=N/c1ccc(S(=O)(=O)Nc2ncccn2)cc1)c1ccc(/N=N\c2c[nH]c3ccccc23)cc1 [DS-19, 4-((Z)-(1-(4-((Z)-(1H-Indol-3-yl)diazenyl)phenyl)ethylidene)amino)-N-(pyrimidin-2-yl) benzenesulfonamide]																	MIC [1]: 31.25 mg/L (≈ 63.1 µM); MBC/MFC [2]: 31.25 mg/L (≈ 63.1 µM); MBC/MFC [3]: 62.5 mg/L (≈ 126 µM); MIC [4]: 31.25 mg/L (≈ 63.1 µM); MBC/MFC [11]: 125 mg/L (≈ 252 µM); MIC [5]: 62.5 mg/L (≈ 126 µM); MIC [6]: 7.81 mg/L (≈ 15.8 µM); MBC/MFC [12]: 125 mg/L (≈ 252 µM); MBC/MFC [7]: 15.62 mg/L (≈ 31.5 µM); MIC [13]: 31.25 mg/L (≈ 63.1 µM); MIC [14]: 31.25 mg/L (≈ 63.1 µM); MBC/MFC [10]: 125 mg/L (≈ 252 µM)
CCc1nnc(/N=C(/C)c2ccc(/N=N\c3c[nH]c4ccccc34)cc2)s1 [DS-7, (Z)-N-(1-(4-((Z)-(1H-Indol-3-yl)diazenyl)phenyl)ethylidene)-5-ethyl-1,3,4-thiadiazol-2-amine]	125 (≈ 334 µM)	125 (≈ 334 µM)	31.2 (≈ 83.5 µM)	62.5 (≈ 167 µM)	31.2 (≈ 83.5 µM)	7.81 (≈ 20.9 µM)	16.2 (≈ 43.4 µM)		3.9 (≈ 10.4 µM)	125 (≈ 334 µM)	125 (≈ 334 µM)	145 to 150	125 (≈ 334 µM)	31.2 (≈ 83.5 µM)	62.5 (≈ 167 µM)	62.5 (≈ 167 µM)	
C/C(=N/c1ccc(Cl)cc1[N+](=O)[O-])c1ccc(/N=N\c2c[nH]c3ccccc23)cc1 [DS-13, (Z)-N-(1-(4-((Z)-(1H-Indol-3-yl)diazenyl)phenyl)ethylidene)-4-chloro-2-nitroaniline]	62.5 (≈ 150 µM)	62.5 (≈ 150 µM)	3.9 to 7.81 (≈ 9.33 to 18.7 µM)	62.5 (≈ 150 µM)	62.5 (≈ 150 µM)	7.81 (≈ 18.7 µM)	15.6 (≈ 37.4 µM)		3.9 (≈ 9.33 µM)	125 (≈ 299 µM)	125 (≈ 299 µM)		125 (≈ 299 µM)	62.5 (≈ 150 µM)	31.2 (≈ 74.8 µM)	62.5 (≈ 150 µM)	
CC(=O)NS(=O)(=O)c1ccc(/N=C(/C)c2ccc(/N=N\c3c[nH]c4ccc([N+](=O)[O-])cc34)cc2)cc1 [DS-15, N-((4-((Z)-(1-(4-((Z)-(5-Nitro-1H-indol-3-yl)diazenyl)phenyl)ethylidene)amino)phenyl)sulfonyl)acetamide]	31.2 (≈ 61.9 µM)	31.2 (≈ 61.9 µM)	125 (≈ 248 µM)	125 (≈ 248 µM)	31.2 (≈ 61.9 µM)	15.6 (≈ 31 µM)	31.2 (≈ 61.9 µM)	31.2 (≈ 61.9 µM)	3.9 (≈ 7.73 µM)	62.5 (≈ 124 µM)	125 (≈ 248 µM)	110 to 115	125 (≈ 248 µM)		62.5 (≈ 124 µM)	125 (≈ 248 µM)	
C/C(=N/c1ccc(S(=O)(=O)Nc2ccccn2)cc1)c1ccc(/N=N\c2c[nH]c3ccccc23)cc1 [DS-11, 4-((Z)-(1-(4-((Z)-(1H-Indol-3-yl)diazenyl)phenyl)ethylidene)amino)-N-(pyridin-2-yl)benzenesulfonamide]	31.2 (≈ 63.2 µM)	62.5 (≈ 126 µM)	62.5 (≈ 126 µM)	31.2 (≈ 63.2 µM)	62.5 (≈ 126 µM)	3.9 (≈ 7.89 µM)	31.2 (≈ 63.2 µM)	125 (≈ 253 µM)	15.6 (≈ 31.6 µM)	125 (≈ 253 µM)	125 (≈ 253 µM)	135 to 140	125 (≈ 253 µM)		62.5 (≈ 126 µM)	125 (≈ 253 µM)	
